Measurements from PMC3901077 (Journal of medicinal chemistry, 2010).
Where two headings read alike, the source gives them in different places.

What was measured:
[1] = test system: A549 human lung carcinoma cells; assay: MTT cytotoxicity assay in A549 cells; assay type: cell-based; settings: IC50 versus CPT

Compound | CPT reconversion rate (rank among prodrugs) (PB pH 6.6, 7.0 and 7.4) | time for ester bond hydrolysis (PB pH 6.6, 37 °C) | time for ester bond hydrolysis (PB pH 7.0, 37 °C) | time for ester bond hydrolysis (PB pH 7.4, 37 °C) | fold less potent than parent drug (CPT) [1] | stability (rank among prodrugs) (PB pH 6.6, 7.0 and 7.4)
CC[C@@]1(OC(=O)CN)C(=O)OCc2c1cc1n(c2=O)Cc2cc3ccccc3nc2-1 [Prodrug 2a] | fastest | ≤ 96 h | ≤ 96 h | ≤ 72 h | about 2 fold | –
CC[C@@]1(OC(=O)[C@@H](C)N)C(=O)OCc2c1cc1n(c2=O)Cc2cc3ccccc3nc2-1 [Prodrug 2b] | – | 96 h | 96 h | ≤ 72 h | ~20 fold | –
CC[C@@H](N)C(=O)O[C@]1(CC)C(=O)OCc2c1cc1n(c2=O)Cc2cc3ccccc3nc2-1 [Prodrug 2c] | – | 120 h | ~ 120 h | ≤ 96 h | – | –
CCC[C@@H](N)C(=O)O[C@]1(CC)C(=O)OCc2c1cc1n(c2=O)Cc2cc3ccccc3nc2-1 [Prodrug 2d] | – | 144 h | ≤ 120 h | ≤ 120 h | – | most stable
